This is an account of results in the supplement of paper PMC7108870.

In assay [1] the test system is HEK293sieSTAT3(Y640F). The experiment in a line: drug sensitivity score (DSS), viability CellTiter-Glo (DSS (dimensionless)); higher = more growth inhibition; extreme values may be limits of the assay. Conditions: 72 h; STAT3 variant: Y640F (constitutively active). An outline of the steps:
(§1)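 For 72 hours at 37°C and 5% CO2, HEK293 cells overexpressing wild-type or mutant STAT3 and carrying a STAT3-dependent luciferase reporter were cultured on compounds at 5 concentrations in 10-fold dilutions. CellTox Green and then CellTiter-Glo signals were read, normalised to negative and positive control wells, and converted in Breeze into a drug sensitivity score based on dose-response curve area. Values are from one representative of two experiments.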
On the technique in general: Cellular ATP, detected with luciferase, serves as a proxy for viable cell number.

The test system of assay [2] is HEK293sieSTAT3(wt). The description is as above. Conditions: 72 h; STAT3 variant: wild type. An outline of the steps:
as §1

The subject of assay [3] is HEK293sieSTAT3(Y640F). The experiment in a line: drug sensitivity score (DSS), cytotoxicity CellTox Green (DSS (dimensionless)); higher = more cytotoxic; extreme values may be limits of the assay. Conditions: 72 h; STAT3 variant: Y640F (constitutively active). The gist of the method: as §1
In assay [4] the test system is HEK293sieSTAT3(wt). Described as above. The conditions noted are these: 72 h; STAT3 variant: wild type. The gist of the method:
as §1

As for `COc1cc(OC)c(/C=C/S(=O)(=O)Cc2ccc(OC)c(NCC(=O)O)c2)c(OC)c1` [Rigosertib] (top concentration tested 10000 nM), the drug sensitivity score was 21.8 in assay [1], 21.9 in assay [2], 6.71 in assay [3] and 18.7 in assay [4].

`NC1(c2ccc(-c3nc4ccn5c(=O)[nH]nc5c4cc3-c3ccccc3)cc2)CCC1` [MK-2206] (top concentration tested 1000 nM): the drug sensitivity score in assay [1] turned out to be 3.71; in assay [2] it was 8.2; in assay [3] it was 0; in assay [4], 0.

As for `Cc1c(CN2CCN(C(=O)[C@H](C)O)CC2)sc2c(N3CCOCC3)nc(-c3cnc(N)nc3)nc12` [Apitolisib] (top concentration tested 10000 nM), the drug sensitivity score was determined as 23.8 in assay [1], 19.8 in assay [2], 0 in assay [3] and 8.67 in assay [4].

Consider `CC(=O)Nc1ccc(C(=O)Nc2ccccc2N)cc1` [Tacedinaline] (top concentration tested 1000 nM), for which the drug sensitivity score was 4.27 in assay [1], 2.27 in assay [2], 0 in assay [3] and 0 in assay [4].

Turning to `Cn1c(=O)n(-c2ccc(C(C)(C)C#N)cc2)c2c3cc(-c4cnc5ccccc5c4)ccc3ncc21` [Dactolisib] (top concentration tested 1000 nM), the drug sensitivity score in assay [1] stood at 19.3; in assay [2] it was 23; in assay [3] it was 0; in assay [4] it was 2.88.

As to `CC(C)(C)c1cnc(CSc2cnc(NC(=O)C3CCNCC3)s2)o1` [SNS-032] (top concentration tested 10000 nM), the drug sensitivity score worked out at 25.3 in assay [1], 26.7 in assay [2], 10.3 in assay [3] and 22.6 in assay [4].

In the case of `COC(=O)C[C@](O)(CCCC(C)(C)O)C(=O)O[C@@H]1C(OC)=C[C@]23CCCN2CCc2cc4c(cc2[C@H]13)OCO4` [Omacetaxine] (top concentration tested 10000 nM), the drug sensitivity score came to 28.9 in assay [1], 32.9 in assay [2], 1.64 in assay [3] and 3.27 in assay [4].

For the molecule `CC/C(=C(\c1ccc(O)cc1)c1ccc(OCCN(C)C)cc1)c1ccccc1` [4-hydroxytamoxifen] (top concentration tested 10000 nM), the drug sensitivity score in assay [1] turned out to be 6.34; in assay [2], 7.39; in assay [3], 6.81; in assay [4] it was 7.36.

Consider `CNCc1ccc(-c2[nH]c3cc(F)cc4c3c2CCNC4=O)cc1` [Rucaparib] (top concentration tested 10000 nM), for which the drug sensitivity score came out at 4.37 in assay [1], 4.23 in assay [2], 0 in assay [3] and 0.89 in assay [4].

As for `C[C@]12C=CC(=O)C=C1CC[C@@H]1[C@@H]2C(=O)C[C@@]2(C)[C@H]1CC[C@]2(O)C(=O)CO` [Prednisone] (top concentration tested 10000 nM), the drug sensitivity score in assay [1] was found to be 0.65; in assay [2], 3.96; in assay [3] it was 0.59; in assay [4], 0.

On to `CCCNC(=O)Nc1ccc(Oc2ncnc3cc(OC)c(OC)cc23)cc1Cl` [KRN-633] (top concentration tested 2500 nM), for which the drug sensitivity score in assay [1] was 0.57; in assay [2], 0.2; in assay [3], 0; in assay [4] it was 0.01.

Consider `Nc1cccc2c1CN(C1CCC(=O)NC1=O)C2=O` (stereo unspecified) [Lenalidomide] (top concentration tested 100000 nM), for which the drug sensitivity score is 2.66 in assay [1], 2.72 in assay [2], 0 in assay [3] and 0 in assay [4].

Consider `O=C1CCC(N2C(=O)c3ccccc3C2=O)C(=O)N1` (stereo unspecified) [Thalidomide] (top concentration tested 10000 nM), for which the drug sensitivity score in assay [1] turned out to be 4.79; in assay [2] it was 2.38; in assay [3], 0; in assay [4], 0.

Regarding `O=C(NC1CCNCC1)c1n[nH]cc1NC(=O)c1c(Cl)cccc1Cl` [AT7519] (top concentration tested 10000 nM), the drug sensitivity score in assay [1] turned out to be 16.7; in assay [2] it was 18.6; in assay [3], 4.11; in assay [4], 12.2.

Turning to `Cn1ncc(Cl)c1-c1cc(C(=O)N[C@H](CN)Cc2ccc(F)c(F)c2)oc1Cl` [Uprosertib] (top concentration tested 10000 nM), the drug sensitivity score in assay [1] was determined as 12.7; in assay [2], 15.3; in assay [3], 0; in assay [4] it was 0.

As to `CC[C@@H]1C(=O)N(C)c2cnc(Nc3ccc(C(=O)NC4CCN(C)CC4)cc3OC)nc2N1C1CCCC1` [BI 2536] (top concentration tested 1000 nM), the drug sensitivity score in assay [1] was 23.5; in assay [2] it was 24.7; in assay [3], 2.98; in assay [4], 20.1.

Turning to `CCN1CCN(c2ccc(Nc3cc(N(C)C(=O)Nc4c(Cl)c(OC)cc(OC)c4Cl)ncn3)cc2)CC1` [NVP-BGJ398] (top concentration tested 1000 nM), the drug sensitivity score in assay [1] came to 0.2; in assay [2], 0; in assay [3], 0; in assay [4] it was 2.48.

Consider `Cn1cc(-c2ccc3nnc(Sc4ccc5ncccc5c4)n3n2)cn1` [SGX-523] (top concentration tested 5000 nM), for which the drug sensitivity score in assay [1] is 0; in assay [2], 0.49; in assay [3], 0.89; in assay [4], 0.

With `CN1CCN(CCOc2cc(OC3CCOCC3)c3c(Nc4c(Cl)ccc5c4OCO5)ncnc3c2)CC1` [Saracatinib] (top concentration tested 10000 nM), the drug sensitivity score in assay [1] came out at 7.28; in assay [2], 6.87; in assay [3] it was 1.77; in assay [4], 9.4.

Regarding `CC(C)n1nc(-c2ccc3oc(N)nc3c2)c2c(N)ncnc21` [MLN-0128] (top concentration tested 1000 nM), the drug sensitivity score in assay [1] was determined as 15; in assay [2], 18.7; in assay [3], 0; in assay [4], 1.73.

For the molecule `CC(C)C[C@H](NC(=O)[C@@H](COC(C)(C)C)NC(=O)[C@H](Cc1ccc(O)cc1)NC(=O)[C@H](CO)NC(=O)[C@H](Cc1c[nH]c2ccccc12)NC(=O)[C@H](Cc1cnc[nH]1)NC(=O)[C@@H]1CCC(=O)N1)C(=O)N[C@@H](CCCNC(=N)N)C(=O)N1CCC[C@H]1C(=O)NNC(N)=O` [Goserelin] (top concentration tested 10000 nM), the drug sensitivity score in assay [1] amounted to 2.1; in assay [2] it was 1.57; in assay [3] it was 0; in assay [4], 0.

For `O=[N+]([O-])c1ccc2c(c1)S(=O)(=O)C=C2` [Stattic] (top concentration tested 50000 nM), the drug sensitivity score in assay [1] was found to be 17.2; in assay [2] it was 17.2; in assay [3] it was 16.9; in assay [4] it was 18.9.

Turning to `CCn1c(-c2nonc2N)nc2cnc(Oc3cccc(NC(=O)c4ccc(OCCN5CCOCC5)cc4)c3)cc21` (top concentration tested 10000 nM), the drug sensitivity score in assay [1] turned out to be 7.47; in assay [2], 6.32; in assay [3], 0.98; in assay [4], 1.34.

Take `NS(=O)(=O)OC[C@@H]1C[C@@H](n2ccc3c(N[C@H]4CCc5ccccc54)ncnc32)C[C@@H]1O` [Pevonedistat] (top concentration tested 10000 nM): the drug sensitivity score in assay [1] turned out to be 22.3; in assay [2], 23.6; in assay [3] it was 3.23; in assay [4] it was 7.13.

As to `CCN(CC)CCOc1ccc(C(=C(Cl)c2ccccc2)c2ccccc2)cc1` [Clomifene] (top concentration tested 10000 nM), the drug sensitivity score in assay [1] is 5.14; in assay [2], 7.15; in assay [3], 6.99; in assay [4], 7.9.

Turning to `COc1cc(Br)c(Nc2nc(-c3c(C)nc4ncccn34)cs2)c(Br)c1` [PTC-209] (top concentration tested 10000 nM), the drug sensitivity score worked out at 16 in assay [1], 15.7 in assay [2], 0.1 in assay [3] and 2.2 in assay [4].

Regarding `C=CCNC1=C2C[C@@H](C)C[C@H](OC)[C@H](O)[C@@H](C)/C=C(\C)[C@H](OC(N)=O)[C@@H](OC)/C=C\C=C(/C)C(=O)NC(=CC1=O)C2=O` [Tanespimycin] (top concentration tested 10000 nM), the drug sensitivity score in assay [1] was 22.1; in assay [2], 22.6; in assay [3], 7.34; in assay [4], 12.8.

For the molecule `Oc1c2ccccc2c2c3c(cccc13)N=N2` (top concentration tested 100000 nM), the drug sensitivity score in assay [1] is 7.42; in assay [2], 6.18; in assay [3], 0.97; in assay [4], 2.91.

Consider `CC(C)(C)Cn1c(N)nc2ccc(-c3[nH]c(C(C)(C)C)nc3-c3ccc(F)cc3)nc21` [Ralimetinib] (top concentration tested 10000 nM), for which the drug sensitivity score in assay [1] is 0.9; in assay [2], 0; in assay [3], 0.02; in assay [4], 0.

For `CC[C@H](CO)Nc1nc(NCc2ccccc2)c2ncn(C(C)C)c2n1` [Seliciclib] (top concentration tested 10000 nM), the drug sensitivity score was 6.02 in assay [1], 6.69 in assay [2], 2.48 in assay [3] and 6.62 in assay [4].

In the case of `CNc1nc(Nc2cn(C(C)(C)C#N)nc2C)ncc1C(F)(F)F` [GNE-0877] (top concentration tested 1000 nM), the drug sensitivity score in assay [1] came to 3.78; in assay [2] it was 0.56; in assay [3], 0; in assay [4], 0.

Regarding `Cn1nnc2c(C(N)=O)ncn2c1=O` [Temozolomide] (top concentration tested 100000 nM), the drug sensitivity score in assay [1] is 0; in assay [2], 0.36; in assay [3], 0.32; in assay [4], 0.

For the molecule `C/C(=C\c1csc(C)n1)[C@@H]1C[C@@H]2O[C@]2(C)CCC[C@H](C)[C@H](O)[C@@H](C)C(=O)C(C)(C)[C@@H](O)CC(=O)N1` [Ixabepilone] (top concentration tested 1000 nM), the drug sensitivity score was determined as 6.8 in assay [1], 8.23 in assay [2], 0.83 in assay [3] and 3.56 in assay [4].

Consider `CC[C@]1(O)C[C@@H]2CN(CCc3c([nH]c4ccccc34)[C@@](C(=O)OC)(c3cc4c(cc3OC)N(C)[C@H]3[C@@](O)(C(=O)OC)[C@H](OC(C)=O)[C@]5(CC)C=CCN6CC[C@]43[C@@H]65)C2)C1` [Vinblastine] (top concentration tested 1000 nM), for which the drug sensitivity score was determined as 19.8 in assay [1], 21.8 in assay [2], 5.1 in assay [3] and 19.4 in assay [4].
